Measurements taken from BindingDB's records for doi:10.1021/jm00024a010 (Boehringer Ingelheim Pharmaceuticals, 1995).

Tests used:
[1] = target: T1, Gag-Pol polyprotein [600-1027,R876K]/[600-1155] (Human immunodeficiency virus 1, UniProt P03366, R876K); assay: HIV-1 RT Assay
T1 construct: 600-1027; 600-1155

[2] = target: T2, Gag-Pol polyprotein [600-1027,Y780C]/[600-1155,Y780C] (Human immunodeficiency virus 1, UniProt P03366, Y780C); assay: HIV-1 RT Assay
T2 construct: 600-1027; 600-1155

Structure (SMILES) | IC50 [1] | IC50 [2] | other results
CN1C(=O)c2cccnc2N(C2CC2)c2nc(Cl)ccc21 [5-chloro-2-cyclopropyl-9-methyl-2,4,9,15-tetraazatricyclo[9.4.0.0^{3,8}]pentadeca-1(11),3,5,7,12,14-hexaen-10-one] |  |  | IC50 ([1]; pH 7.8, 25 °C): 90 nM
CCN1c2ncccc2C(=O)N(C)c2ccc(-c3cncs3)nc21 [2-ethyl-9-methyl-5-(1,3-thiazol-5-yl)-2,4,9,15-tetraazatricyclo[9.4.0.0^{3,8}]pentadeca-1(11),3,5,7,12,14-hexaen-10-one] | 100 nM | 240 nM | 
CCN1c2ncccc2C(=O)Nc2c(C)cc(C)nc21 [2-ethyl-5,7-dimethyl-2,4,9,15-tetraazatricyclo[9.4.0.0^{3,8}]pentadeca-1(11),3,5,7,12,14-hexaen-10-one] |  |  | IC50 ([2]; pH 7.8, 25 °C): > 1000 nM
CCN1c2ncccc2C(=O)N(C)c2ccc(-c3cnco3)nc21 [2-ethyl-9-methyl-5-(1,3-oxazol-5-yl)-2,4,9,15-tetraazatricyclo[9.4.0.0^{3,8}]pentadeca-1(11),3,5,7,12,14-hexaen-10-one] | 220 nM | 820 nM | 
CCN1c2ncccc2C(=O)Nc2c(C)cc(NCCO)nc21 [2-ethyl-5-[(2-hydroxyethyl)amino]-7-methyl-2,4,9,15-tetraazatricyclo[9.4.0.0^{3,8}]pentadeca-1(11),3,5,7,12,14-hexaen-10-one] |  | > 1000 nM | 
CCN1c2ncccc2C(=O)N(C)c2ccc(-c3nccs3)nc21 [5,11-dihydro-11-ethyl-5-methyl-2-(2-thiazolyl)-6H-dipyrido[3,2-b:2 ,3-e][1,4]diazepin-6-one] | 380 nM | 1100 nM | 
CCN1c2ncccc2C(=O)N(C)c2ccc(N)nc21 [5-amino-2-ethyl-9-methyl-2,4,9,15-tetraazatricyclo[9.4.0.0^{3,8}]pentadeca-1(11),3,5,7,12,14-hexaen-10-one] | > 1000 nM | > 1000 nM | 
CCN1c2ncccc2C(=O)Nc2c(C)cc(N(C)CCO)nc21 [2-ethyl-5-[(2-hydroxyethyl)(methyl)amino]-7-methyl-2,4,9,15-tetraazatricyclo[9.4.0.0^{3,8}]pentadeca-1(11),3,5,7,12,14-hexaen-10-one] |  | > 1000 nM | 
CCN1c2ncccc2C(=O)Nc2c(C)cc(NCCCO)nc21 [2-ethyl-5-[(3-hydroxypropyl)amino]-7-methyl-2,4,9,15-tetraazatricyclo[9.4.0.0^{3,8}]pentadeca-1(11),3,5,7,12,14-hexaen-10-one] |  | > 1000 nM | 
CCN1c2ncccc2C(=O)Nc2c(C)cc(N3CCSCC3)nc21 [2-ethyl-7-methyl-5-(thiomorpholin-4-yl)-2,4,9,15-tetraazatricyclo[9.4.0.0^{3,8}]pentadeca-1(11),3,5,7,12,14-hexaen-10-one] |  | > 1000 nM | 
CCN1c2ncccc2C(=O)N(C)c2ccc(-c3ccsc3)nc21 [2-ethyl-9-methyl-5-(thiophen-3-yl)-2,4,9,15-tetraazatricyclo[9.4.0.0^{3,8}]pentadeca-1(11),3,5,7,12,14-hexaen-10-one] | 100 nM |  | 
CCN1c2ncccc2C(=O)N(C)c2ccc(=O)[nH]c21 [2-ethyl-5-hydroxy-9-methyl-2,4,9,15-tetraazatricyclo[9.4.0.0^{3,8}]pentadeca-1(11),3,5,7,12,14-hexaen-10-one] |  | > 1000 nM | 
CCC=Nc1ccc2c(n1)N(CC)c1ncccc1C(=O)N2C | 390 nM | > 1000 nM | 
CCN1c2ncccc2C(=O)Nc2c(C)cc(C(C)(C)C)nc21 [5-tert-butyl-2-ethyl-7-methyl-2,4,9,15-tetraazatricyclo[9.4.0.0^{3,8}]pentadeca-1(11),3,5,7,12,14-hexaen-10-one] |  |  | IC50 ([1]; pH 7.8, 25 °C): > 1000 nM; IC50 ([2]; pH 7.8, 25 °C): > 1000 nM
CCN1c2ncccc2C(=O)N(C)c2ccc(-c3cccc(N)c3)nc21 [5,11-dihydro-11-ethyl-5-methyl-2-(3-aminophenyl)-6H-dipyrido[3,2-b:2 ,3-e][1,4]diazepin-6-one] | 70 nM |  | 
CCN1c2ncccc2C(=O)Nc2c(C)cc(SC)nc21 [2-ethyl-7-methyl-5-(methylsulfanyl)-2,4,9,15-tetraazatricyclo[9.4.0.0^{3,8}]pentadeca-1(11),3,5,7,12,14-hexaen-10-one] |  | > 1000 nM | 
CCN1c2ncccc2C(=O)N(C)c2cccnc21 |  |  | IC50 ([1]; pH 7.8, 25 °C): 130 nM
CCN1c2ncccc2C(=O)N(C)c2ccc(-c3ccccn3)nc21 [2-ethyl-9-methyl-5-(pyridin-2-yl)-2,4,9,15-tetraazatricyclo[9.4.0.0^{3,8}]pentadeca-1(11),3,5,7,12,14-hexaen-10-one] | 180 nM |  | 
CCN1c2ncccc2C(=O)N(C)c2ccc(-c3ncco3)nc21 [2-ethyl-9-methyl-5-(1,3-oxazol-2-yl)-2,4,9,15-tetraazatricyclo[9.4.0.0^{3,8}]pentadeca-1(11),3,5,7,12,14-hexaen-10-one] | 110 nM | 560 nM | 
CCN1c2ncccc2C(=O)N(C)c2ccc(-c3cccc(O)c3)nc21 [2-ethyl-5-(3-hydroxyphenyl)-9-methyl-2,4,9,15-tetraazatricyclo[9.4.0.0^{3,8}]pentadeca-1(11),3,5,7,12,14-hexaen-10-one] | 100 nM |  | 
CCN1c2ncccc2C(=O)Nc2c(C)cc(C(C)C)nc21 [2-ethyl-7-methyl-5-(propan-2-yl)-2,4,9,15-tetraazatricyclo[9.4.0.0^{3,8}]pentadeca-1(11),3,5,7,12,14-hexaen-10-one] |  |  | IC50 ([2]; pH 7.8, 25 °C): > 1000 nM
CCN1c2ncccc2C(=O)N(C)c2ccc(N3CCCCC3)nc21 [2-ethyl-9-methyl-5-(piperidin-1-yl)-2,4,9,15-tetraazatricyclo[9.4.0.0^{3,8}]pentadeca-1(11),3,5,7,12,14-hexaen-10-one] |  | > 1000 nM | 
